Results as given in patent US20030232902A1, “Ink composition and ink - jet recording method” (FUJI PHOTO FILM CO., LTD., priority 2002, published 2003).

Columns and labels:
[1] = Solubility of auxiliary solvent in water at 25° C.; details: for Solubility of auxiliary solvent in water at 25° C.: in 100 g of water at 25° C.; for Auxiliary solvent Water solubility: Table 1
[2] = Water solubility of high-boiling point organic solvent; type: physicochemical; details: 25° C.
[3] = Specific gravity of high-boiling point organic solvent; type: physicochemical

Solubility of auxiliary solvent in water at 25° C. [1] [g]	Auxiliary solvent Water solubility [1] [g]	Compound	High-boiling point organic solvent Water Solubility [2] [g]	High-boiling point organic solvent Specific Gravity [3]
–	–	CCCCCOP(=O)(OCCCCC)OCCCCC [SPX-4, [(n)C5H11O]3—P═O]	4.5	0.94
2	2	CCCOC(C)=O [AS-2, propyl acetate]	–	–
–	–	(ClCH2CHCHO)3—P═O [SPX-2]	0.9	1.51
20	–	2-ethylene acetate [AS-4]	–	–
<1	–	CCC(CC)COC(C)=O [AS-3, 2-ethylbutyl acetate]	–	–
–	–	O=P(OCCCl)(OCCCl)OCCCl [SPX-3, (ClCH2CH2O)3—P═O]	4.64	1.41
8	8	CCOC(C)=O [AS-1, ethyl acetate]	–	–
2	–	CCOC(=O)CC [AS-7, ethyl propionate]	–	–

Compound	Solubility of auxiliary solvent in water at 25° C. [1] [g]	Auxiliary solvent Water solubility [1] [g]	High-boiling point organic solvent Water Solubility [2] [g]	High-boiling point organic solvent Specific Gravity [3]
CCCCOCCOCCOC(C)=O [AS-10, 2-(2-n-butoxyethoxy)ethyl acetate]	2	–	–	–
CCCCOC(C)=O [AS-6, butyl acetate]	2	–	–	–
O=C1CCCCC1 [AS-11, cyclohexanone]	15	–	–	–
CCOCCOC(C)=O [AS-5, 2-ethoxyethyl acetate]	25	–	–	–
